Results reported in patent US20140179773A1, “METHOD FOR THE TREATMENT OF HEART RELATED DISORDERS IN NAFLD PATIENTS” (INSTITUTO BIOCHIMICO ITALIANO GIOVANNI LORENZINI S.P.A., priority 2012, published 2014).

Columns and labels:
Type in all cases: in vivo
[1] = system: db/db mice fed a methionine-choline deficient (MCD) diet; assay: Liver triglycerides content (colorimetric kit) in db/db mice fed MCD diet; conditions: 4 weeks MCD diet, silibinin 20 mg/kg i.p. daily
Description: All procedures fulfilled the Italian Guidelines for the Use and Care of Laboratory Animals. Six-week-old male BKS.Cg-m+/+ Leprdb/J (db/db) obese mice and six-week-old male heterozygous db/m lean control mice were purchased. Animals were maintained in a temperature and light-controlled facility and permitted ad libitum consumption of water; after two week of acclimation, db/db mice were fed a MCD diet for 4 weeks, whereas db/m mice were fed a MCD diet supplemented with methionine and choline, i.e. a standard diet (SD), for the same period. Silibinin was dissolved in saline (vehicle) and daily administered intraperitoneally at a dosage of 20 mg/kg of body weight. […]
Blood glucose was measured by Accuchek (Roche Diagnostics, Milan, Italy). Serum ALT and serum insulin were determined using a multichannel autoanalyzer. Liver triglycerides content was measured using a serum/tissue triglyceride colorimetric kit (Biovision, Mountain View, Calif.). Liver and heart isoprostanes and 8-hydroxyguanosine (8-OHG) were determined by enzyme-linked immunosorbent assay (ELISA) test; reduced glutathione (GSH) was assessed by a GSH assay. Liver and heart nitrite/nitrates were measured colorimetrically using Griess reagent, following manufacturer's instructions. […]

[2] = system: Liver mitochondrial respiratory chain (MRC) complexes I-V; assay: Mitochondrial respiratory chain activity assay in liver of treated mice; conditions: activity relative to db/m + SD group = 100, MCD diet, silibinin 20 mg/kg i.p. daily 4 weeks
Description: All procedures fulfilled the Italian Guidelines for the Use and Care of Laboratory Animals. Six-week-old male BKS.Cg-m+/+ Leprdb/J (db/db) obese mice and six-week-old male heterozygous db/m lean control mice were purchased. Animals were maintained in a temperature and light-controlled facility and permitted ad libitum consumption of water; after two week of acclimation, db/db mice were fed a MCD diet for 4 weeks, whereas db/m mice were fed a MCD diet supplemented with methionine and choline, i.e. a standard diet (SD), for the same period. Silibinin was dissolved in saline (vehicle) and daily administered intraperitoneally at a dosage of 20 mg/kg of body weight. Mice were distributed in 3 groups: group I included 6 db/m mice fed a control diet and treated with vehicle (db/m+SD); group II comprised 6 db/db mice fed a MCD diet and treated with vehicle (db/db+MCD); group III included 6 db/db mice fed a MCD diet and treated with silibinin (db/db+MCD+silibinin). Treatment was administered for a 4-week period; at the end of it, animals were sacrificed after an overnight fast. Blood, liver and heart samples were obtained and stored at −80° C. for further analysis. Mitochondrial respiratory chain (MRC) activities was determined as previously described. Briefly, liver tissues (50-70 mg) were homogenized with 15 vol of 20 mmol/L KP buffer, pH 7.4, and centrifuged at 800×g for 10 min. Respiratory chain enzymes and citrate synthase activities were measured in a DU-650 spectrophotometer. Incubation temperatures were 30° C. for complexes I, II, III, V, and citrate synthase, and 38° C. for complex IV. Enzyme activities were assessed in supernatants, expressed as nanomoles of substrate used per minute per milligram of protein and referred as a percentage of the specific activity of citrate synthase, to adjust for the hepatic content of mitochondria.

[3] = system: db/db mice fed a methionine-choline deficient (MCD) diet; assay: Biometric and serum biochemical parameters in db/db mice fed MCD diet
Description: This study is aimed at assessing the efficacy of silibinin both on liver and heart injury in NAFLD and at identifying the related molecular events. In order to investigate this issue, we used db/db mice fed a methionine-choline deficient (MCD) diet, a model combining the features of the metabolic syndrome with the histological pattern of NASH [23,24]. In fact, db/db mice fed an MCD diet do partially conserve increased visceral adiposity and an insulin resistant phenotype, while developing hepatocellular injury.
All procedures fulfilled the Italian Guidelines for the Use and Care of Laboratory Animals. Six-week-old male BKS.Cg-m+/+ Leprdb/J (db/db) obese mice and six-week-old male heterozygous db/m lean control mice were purchased. Animals were maintained in a temperature and light-controlled facility and permitted ad libitum consumption of water; after two week of acclimation, db/db mice were fed a MCD diet for 4 weeks, whereas db/m mice were fed a MCD diet supplemented with methionine and choline, i.e. a standard diet (SD), for the same period. Silibinin was dissolved in saline (vehicle) and daily administered intraperitoneally at a dosage of 20 mg/kg of body weight. Mice were distributed in 3 groups: group I included 6 db/m mice fed a control diet and treated with vehicle (db/m+SD); group II comprised 6 db/db mice fed a MCD diet and treated with vehicle (db/db+MCD); group III included 6 db/db mice fed a MCD diet and treated with silibinin (db/db+MCD+silibinin). Treatment was administered for a 4-week period; at the end of it, animals were sacrificed after an overnight fast. Blood, liver and heart samples were obtained and stored at −80° C. for further analysis.
Blood glucose was measured by Accuchek (Roche Diagnostics, Milan, Italy). Serum ALT and serum insulin were determined using a multichannel autoanalyzer. Liver triglycerides content was measured using a serum/tissue triglyceride colorimetric kit (Biovision, Mountain View, Calif.). Liver and heart isoprostanes and 8-hydroxyguanosine (8-OHG) were determined by enzyme-linked immunosorbent assay (ELISA) test; reduced glutathione (GSH) was assessed by a GSH assay. Liver and heart nitrite/nitrates were measured colorimetrically using Griess reagent, following manufacturer's instructions. ELISA kit for TNF-α was used on whole myocardial tissue protein extracts, following manufacturer's instructions.

[4] = db/db mice, 4 weeks MCD diet, silibinin 20 mg/kg i.p. daily
[5] = db/db mice, 4 weeks MCD diet, silibinin 20 mg/kg i.p. daily, overnight fast

SMILES: COc1cc(C2Oc3cc([C@H]4Oc5cc(O)cc(O)c5C(=O)[C@@H]4O)ccc3OC2CO)ccc1O (stereo partly shown) [silibinin, Silibinin]
- Liver triglycerides [1]: 8.3 ± 2.4*, ** mg/g protein
- Liver MRC complex I [2]: 90.2 ± 5.2
- Liver MRC complex II [2]: 88.4 ± 4.3
- Liver MRC complex III [2]: 94.4 ± 6.8
- Liver MRC complex IV [2]: 96.1 ± 5.2
- Liver MRC complex V [2]: 94.3 ± 6.2
- Effect on food intake ([3]; data not shown): did not modify
- HOMA-IR [3, 4]: 1.7 ± 0.5*, **
- Serum ALT [3, 4]: 180.5 ± 66.5*, ** IU/L
- Blood glucose [3, 5]: 103.7 ± 16.8*, ** mg/dL
- Serum insulin [3, 5]: 6.5 ± 1.1 mU/mL
- 12-Weeks weight ([3]; db/db mice, after 4 weeks MCD diet and silibinin 20 mg/kg i.p. daily): 34.8 ± 1.9 g
- Decrease of ALT levels ([3]; silibinin-treated vs vehicle db/db fed MCD diet): 3 fold
